The values below come from ChEMBL document CHEMBL4000251, “Discovery of 4-chloro-2-(2,4-dichloro-6-methylphenoxy)-1-methyl-7-(pentan-3-yl)-1H-benzimidazole, a novel CRF1 receptor antagonist” (Bioorg Med Chem, 2017).

Data set [1] can be described thus: AUC in rat at 1 mg/kg, po. The note with it: in vivo. It counts as ADME, organism-based.
Data set [2] can be described thus: Oral bioavailability in rat at 1 mg/kg. The note with it: in vivo. It counts as ADME, organism-based.

A word on the AUC: it is the area under the concentration-time curve, a measure of exposure. The term bioavailability denotes dose-corrected exposure relative to a reference, in per cent. A high value points to much systemic uptake. Compound `CCC(CC)c1ccc(Cl)c2nc(Oc3c(C)cc(Cl)cc3Cl)n(C)c12` came in with an AUC in data set [1] of 94.6 ng·h/mL. Further, in data set [2], the bioavailability worked out at 30.8%.
